In ChEMBL document CHEMBL1153914, “Synthesis, binding affinity and SAR of new benzolactam derivatives as dopamine D3 receptor ligands” (Bioorg Med Chem Lett, 2009):

Key:
D(1A) dopamine receptor [1] = biological target: T1, D(1A) dopamine receptor (Homo sapiens, UniProt P21728); test: Displacement of [3H]SCH23390 from human dopamine D1 receptor at 10 uM
D(3) dopamine receptor = D(3) dopamine receptor (Homo sapiens, UniProt P35462); test: Displacement of [3H]spiperone from human dopamine D3 receptor
D(2) dopamine receptor [2] = biological target: T2, D(2) dopamine receptor (Homo sapiens, UniProt P14416); test: Displacement of [3H]spiperone from human dopamine D2 receptor at 10 uM
D(1A) dopamine receptor [3] = biological target: T1, D(1A) dopamine receptor; test: Displacement of [3H]SCH23390 from human dopamine D1 receptor
D(2) dopamine receptor [4] = biological target: T2, D(2) dopamine receptor; test: Displacement of [3H]spiperone from human dopamine D2 receptor
Homo sapiens = species on record: Homo sapiens; test: Selectivity ratio of Ki for human dopamine D2 receptor to Ki for human dopamine D3 receptor
[5] = biological target: 5-hydroxytryptamine receptor 2A (Homo sapiens, UniProt P28223); test: Displacement of [3H]ketanserin from 5HT2A receptor
[6] = Selectivity for dopamine D3 receptor over dopamine D2 receptor

T2 sequence (P14416 whole entry): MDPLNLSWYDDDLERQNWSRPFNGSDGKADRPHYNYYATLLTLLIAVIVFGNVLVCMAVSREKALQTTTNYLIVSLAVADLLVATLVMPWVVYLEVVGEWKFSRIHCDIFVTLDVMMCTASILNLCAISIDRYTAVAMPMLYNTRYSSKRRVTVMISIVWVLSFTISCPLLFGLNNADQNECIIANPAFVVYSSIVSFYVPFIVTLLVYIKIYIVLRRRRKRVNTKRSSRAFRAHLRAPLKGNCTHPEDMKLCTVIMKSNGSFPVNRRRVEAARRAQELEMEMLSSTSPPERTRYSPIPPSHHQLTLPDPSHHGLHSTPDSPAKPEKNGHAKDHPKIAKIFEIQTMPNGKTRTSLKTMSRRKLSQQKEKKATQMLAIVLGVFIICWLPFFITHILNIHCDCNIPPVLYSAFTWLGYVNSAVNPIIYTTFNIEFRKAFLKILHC
D(3) dopamine receptor, sequence (P35462 whole entry): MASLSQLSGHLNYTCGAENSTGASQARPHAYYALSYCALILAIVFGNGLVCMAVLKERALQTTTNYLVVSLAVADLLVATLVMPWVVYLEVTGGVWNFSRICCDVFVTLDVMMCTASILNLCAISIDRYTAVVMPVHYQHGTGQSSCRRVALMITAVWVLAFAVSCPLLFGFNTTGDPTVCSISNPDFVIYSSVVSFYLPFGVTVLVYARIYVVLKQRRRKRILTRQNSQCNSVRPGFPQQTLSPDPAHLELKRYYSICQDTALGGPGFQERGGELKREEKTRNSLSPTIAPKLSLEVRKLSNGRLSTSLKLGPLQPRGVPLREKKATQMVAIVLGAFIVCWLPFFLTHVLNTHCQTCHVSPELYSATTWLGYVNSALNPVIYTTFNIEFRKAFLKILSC
T1 sequence (P21728 whole entry): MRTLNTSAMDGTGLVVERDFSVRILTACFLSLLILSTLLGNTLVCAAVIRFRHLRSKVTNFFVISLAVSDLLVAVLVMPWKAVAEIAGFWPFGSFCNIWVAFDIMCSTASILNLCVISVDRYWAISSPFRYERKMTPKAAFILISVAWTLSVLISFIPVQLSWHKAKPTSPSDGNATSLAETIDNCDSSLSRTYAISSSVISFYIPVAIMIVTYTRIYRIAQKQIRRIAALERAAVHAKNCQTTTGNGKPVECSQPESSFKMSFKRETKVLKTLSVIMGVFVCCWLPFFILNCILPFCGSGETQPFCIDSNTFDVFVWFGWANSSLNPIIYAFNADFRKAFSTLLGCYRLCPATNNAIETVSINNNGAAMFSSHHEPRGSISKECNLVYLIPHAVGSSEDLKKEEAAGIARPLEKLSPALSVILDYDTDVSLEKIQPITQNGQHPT
5-hydroxytryptamine receptor 2A, sequence (P28223 whole entry): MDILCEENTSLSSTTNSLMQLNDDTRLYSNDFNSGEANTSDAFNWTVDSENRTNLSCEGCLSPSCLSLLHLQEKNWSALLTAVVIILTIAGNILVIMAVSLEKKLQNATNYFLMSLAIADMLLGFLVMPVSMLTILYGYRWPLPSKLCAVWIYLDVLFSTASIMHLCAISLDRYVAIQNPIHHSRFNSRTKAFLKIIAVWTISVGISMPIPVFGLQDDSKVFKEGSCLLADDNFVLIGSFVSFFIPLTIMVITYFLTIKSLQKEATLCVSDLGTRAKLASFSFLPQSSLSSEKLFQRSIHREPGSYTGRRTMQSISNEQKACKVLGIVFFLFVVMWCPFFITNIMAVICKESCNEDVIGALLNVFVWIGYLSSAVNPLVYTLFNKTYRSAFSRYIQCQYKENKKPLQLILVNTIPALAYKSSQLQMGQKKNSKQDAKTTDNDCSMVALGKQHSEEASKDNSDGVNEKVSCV

| Compound | Activity (D(1A) dopamine receptor [1]) | Ki (D(3) dopamine receptor; read-out: pKi (converted)) | Activity (D(2) dopamine receptor [2]) | Ki (D(1A) dopamine receptor [3]) | Ki (D(2) dopamine receptor [4]) | other results |
| --- | --- | --- | --- | --- | --- | --- |
| COc1ccc(N2CCN(CCCN3CCCCc4ccccc4C3=O)CC2)cc1 | 58.9% | 8910 nM | 13.1% |  |  |  |
| O=C1c2ccccc2CCN1CCCCN1CCN(c2ccccc2Cl)CC1 |  | 6.76 nM |  | 347 nM | 35.5 nM | Ratio Ki (Homo sapiens): 5.2 |
| COc1ccc(N2CCN(CCCCN3CCCc4ccccc4C3=O)CC2)cc1 | 47.5% |  | 59% |  |  | Ki (D(3) dopamine receptor; read-out: Ki): 40 nM |
| O=C1c2ccccc2CCCN1CCCCN1CCN(c2ncccn2)CC1 |  | 631 nM |  | 8710 nM | 151 nM |  |
| COc1ccccc1N1CCN(CCCN2CCc3ccccc3C2=O)CC1 | 59.5% | 1580 nM | 50.4% |  |  |  |
| O=C1c2ccccc2CCN1CCCN1CCN(c2cccc(Cl)c2Cl)CC1 |  | 209 nM | 59.9% | 1450 nM |  |  |
| O=C1c2ccccc2CCCN1CCCCN1CCN(c2ccccn2)CC1 |  | 398 nM |  | 282 nM | 229 nM |  |
| COc1ccccc1N1CCN(CCCCN2CCc3ccccc3C2=O)CC1 | 61.1% |  |  |  | 12.3 nM |  |
| O=C1c2ccccc2CCCN1CCCN1CCN(c2cccc(C(F)(F)F)c2)CC1 |  | 1050 nM | 55.5% | 4900 nM |  |  |
| O=C1c2ccccc2CCCN1CCCN1CCN(c2cccc(Cl)c2Cl)CC1 |  | 389 nM |  | 2400 nM | 219 nM |  |
| O=C1c2ccccc2CCCN1CCCN1CCN(c2ccccn2)CC1 | 57% | 4170 nM | 26.3% |  |  |  |
| COc1ccc(N2CCN(CCCCN3CCc4ccccc4C3=O)CC2)cc1 | 34.2% | 490 nM | 33.2% |  |  |  |
| COc1ccc(N2CCN(CCCN3CCc4ccccc4C3=O)CC2)cc1 | 43.5% | 10000 nM | 1.35% |  |  |  |
| O=C1c2ccccc2CCN1CCCN1CCN(c2ccccn2)CC1 |  | 8320 nM | 12.4% | 1700 nM |  |  |
| COc1ccccc1N1CCN(CCCCN2CCCc3ccccc3C2=O)CC1 |  | 1.58 nM |  | 2690 nM | 3.63 nM | Ratio Ki (Homo sapiens): 2.2 |
| COc1cccc(N2CCN(CCCCN3CCc4ccccc4C3=O)CC2)c1 |  | 40.7 nM |  | 427 nM | 158 nM |  |
| O=C1c2ccccc2CCCN1CCCN1CCN(c2ncccn2)CC1 | 46% | 8320 nM | 36.4% |  |  |  |
| COc1ccc(N2CCN(CCCN3CCCc4ccccc4C3=O)CC2)cc1 | 42.8% | 1100 nM | 1.1% |  | > 100000 nM |  |
| O=C1c2ccccc2CCCN1CCCCN1CCN(c2cccc(Cl)c2Cl)CC1 |  | 14.5 nM |  | 1740 nM | 36.3 nM | Ratio Ki (Homo sapiens): 2.5; Ki [5]: 10 nM |
| O=C1c2ccccc2CCN1CCCCN1CCN(c2ccccn2)CC1 |  |  | 57.5% | 2040 nM |  |  |
| COc1ccccc1N1CCN(CCCN2CCCc3ccccc3C2=O)CC1 |  | 209 nM |  | 2510 nM | 794 nM |  |
| O=C1c2ccccc2CCN1CCCCN1CCN(c2cccc(Cl)c2Cl)CC1 |  | 162 nM |  | 1780 nM | 11.5 nM |  |
| O=C1c2ccccc2CCN1CCCCN1CCN(c2ncccn2)CC1 | 31.6% | 1510 nM | 60.5% |  |  |  |
| O=C1c2ccccc2CCN1CCCN1CCN(c2cccc(C(F)(F)F)c2)CC1 |  | 2400 nM | 52.4% | 1740 nM |  |  |
| O=C1c2ccccc2CCN1CCCN1CCN(c2ncccn2)CC1 | 40.8% | 24500 nM | 0.36% |  |  |  |
| COc1ccccc1N1CCN(CCCCCN2CCc3ccccc3C2=O)CC1 |  | 32.4 nM |  | 977 nM | 20.4 nM |  |
| O=C(NCCCCN1CCN(c2cccc(Cl)c2Cl)CC1)c1cc2ccccc2s1 |  |  |  |  |  | Selectivity ratio [6]: 7200 |
